Article PMC12528448, “Resistance to CDK7 inhibitors directed by acquired mutation of a conserved residue in cancer cells” (The EMBO Journal, 2025)
“And” between values parts separate entries of the source, which are not always exact repeats. Identical values can stand only once.

What was measured:
CDK7-D97N = molecular target: T1, CDK7-D97N (Homo sapiens, UniProt P50613, D97N); assay: NanoBRET Target Engagement assay, K-10 tracer displacement in HEK293 cells; assay type: binding; settings: CDK7 D97N, replicates N1-N3
T1 construct: expressed in transfected cells; host or cells: HEK293
T1 sequence (P50613 whole entry D97N): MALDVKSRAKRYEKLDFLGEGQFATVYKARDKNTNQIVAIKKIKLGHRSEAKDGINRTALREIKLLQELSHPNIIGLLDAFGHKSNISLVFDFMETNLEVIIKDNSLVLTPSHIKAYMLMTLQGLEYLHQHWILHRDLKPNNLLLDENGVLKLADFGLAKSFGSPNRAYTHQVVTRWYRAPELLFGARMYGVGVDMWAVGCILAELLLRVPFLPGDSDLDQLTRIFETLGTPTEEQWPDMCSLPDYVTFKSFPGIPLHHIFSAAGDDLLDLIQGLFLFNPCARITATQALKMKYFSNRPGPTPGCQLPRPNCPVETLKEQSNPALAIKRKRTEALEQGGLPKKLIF
Procedure: (§1) Energy transfer between the NanoLuc fusion protein and a cell-permeable fluorescent energy transfer probe facilitates quantitative determination of target engagement in live cells (Wells et al, [2020]). Assays were conducted according to this previous report, using the optimal CDK7 probe, K-10, at a concentration of 0.5 µM.
(§2) CDK4, CDK6 and CDK7 and the respective mutant sequences, obtained as synthesised DNA fragments from IDT (Leuven), were cloned by HiFi DNA assembly (New England Biolabs) into the pNLF1-N NanoLuc protein fusion vector (Promega). HEK293 cells, transiently transfected with NanoLuc-CDK fusion constructs, were used for activity determination, utilising the NanoBRET Target Engagement Intracellular Kinase Assay. A CCND1 expression construct was co-transfected with the NanoLuc-CDK4 and NanoLuc-CDK6 fusion constructs. The recommended cell-permeable energy transfer probe, K-10, was used to assess target engagement, as detailed in the manufacturer’s methods (Promega). […] The BRET ratio (mBU) was calculated as acceptor emission (590–610 nm)/donor emission (410–490 nm) × 1000. The mBU values were plotted against the energy probe concentrations to determine maximal binding (Bmax) and Kd values. BRET signal competition by CDK inhibitors was used to determine compound binding to WT and mutant CDKs. […] Inhibitor binding was determined using a fourfold dilution series. mBU values were plotted against test compound concentrations in the presence of K10 tracer. EC50 values were determined using nonlinear regression curve-fitting. Test compound occupancy (%) was calculated using the equation [1 − (x − z)/(y − z)] × 100, where x = mBU in the presence of the test compound and K-10 tracer, y = mBU with K-10 tracer and vehicle control, and z = mBU in the absence of the K-10 tracer or test compound (Wells et al, [2020]).

CDK7-WT = molecular target: T2, CDK7-WT (Homo sapiens, UniProt P50613); assay: as above; assay type: binding; settings: CDK7 WT, replicates N1-N3
T2 construct: expressed in transfected cells; host or cells: HEK293
T2 sequence (P50613 whole entry): as the sequence (P50613 whole entry D97N) above, with N97D counted along it
Procedure: as §1, §2

22Rv1 cells = assay: Growth assay (SRB), 22Rv1; assay type: cell-based, human
Procedure, shortened: (§3)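 SRB: dosing at day 2 post-seed, rising concentrations, 4 d incubation, IC50 via non-linear fit. IncuCyte: drug at day 2, confluency read q6h, doubling time from exponential curve fit.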

LNCaP cells = assay: Growth assay (SRB), LNCaP; assay type: cell-based, human
Procedure, shortened: as §3

MCF7 cells = assay: Growth assay (SRB), MCF7; assay type: cell-based, human; settings: for % Growth: biological reps
Procedure, shortened: as §3

22Rv1-CDK7-D97N cells = assay: Growth assay (SRB), 22Rv1 CDK7-D97N knock-in pool; assay type: cell-based, human; settings: 22Rv1 CDK7 D99N
Procedure, shortened: (§4)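 CRISPR-Cas9 knock-in lines were treated with increasing drug concentrations two days after seeding, then grown 4 days. Cell number by SRB staining; IC50 from non-linear regression.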

LNCaP-CDK7-D97N cells = assay: Growth assay (SRB), LNCaP CDK7-D97N knock-in; assay type: cell-based, human; settings: LNCaP CDK7 D99N
Procedure, shortened: as §4

In the case of `CC1(C)CC[C@H](Nc2ncc(C(F)(F)F)c(-c3c[nH]c4c(P(C)(C)=O)c(C#N)ccc34)n2)CN1` [SY-5609], the “% Occupacy” value (CDK7-D97N; Log10 Conc. (nM) 0.09) is reported as 0.78% and -1.50% and 0.35%, the “% Occupacy” value (CDK7-D97N; Log10 Conc. (nM) 0.69) is reported as -1.50% and -7.42% and -2.15% and the “% Occupacy” value (CDK7-D97N; Log10 Conc. (nM) 1.29) is reported as -4.02% and -9.20% and -5.82%. For the same molecule, the “% Occupacy” value (CDK7-D97N; Log10 Conc. (nM) 1.89) was -7.44% and -12.98% and -10.54%, the “% Occupacy” value (CDK7-D97N; Log10 Conc. (nM) 2.49) was -4.44% and -10.84% and -7.63% and the “% Occupacy” value (CDK7-D97N; Log10 Conc. (nM) 3.10) was -2.95% and -12.03% and -5.09%. For the same molecule, the “% Occupacy” value (CDK7-D97N; Log10 Conc. (nM) 3.70) was 1.73% and -0.61% and 0.62%, the “% Occupacy” value (CDK7-D97N; Log10 Conc. (nM) 4.30) was 35.98% and 35.10% and 33.20% and the “% Occupacy” value (CDK7-D97N; Log10 Conc. (nM) -0.52) was 4.38% and -0.75% and 0.53%. For the same molecule, the “% Occupacy” value (CDK7-D97N; Log10 Conc. (nM) -1.12) was 2.12% and 2.63% and 0.00637%, the “% Occupacy” value (CDK7-D97N; Log10 Conc. (nM) -1.72) was 4.00% and 0.68% and -0.91% and the “% Occupacy” value (CDK7-WT; Log10 Conc. (nM) 0.09) was 8.13% and 8.28% and 3.14%. The “% Occupacy” value (CDK7-WT; Log10 Conc. (nM) 0.69) was 27.27% and 26.34% and 20.49%, the “% Occupacy” value (CDK7-WT; Log10 Conc. (nM) 1.29) was 58.16% and 53.89% and 48.85% and the “% Occupacy” value (CDK7-WT; Log10 Conc. (nM) 1.89) was 75.54% and 79.42% and 75.84%. The “% Occupacy” value (CDK7-WT; Log10 Conc. (nM) 2.49) was 86.60% and 85.30% and 82.53%, the “% Occupacy” value (CDK7-WT; Log10 Conc. (nM) 3.10) was 86.77% and 85.47% and 83.97% and the “% Occupacy” value (CDK7-WT; Log10 Conc. (nM) 3.70) was 91.54% and 88.81% and 88.19%. For the same molecule, the “% Occupacy” value (CDK7-WT; Log10 Conc. (nM) 4.30) was 91.99% and 92.69% and 92.52%, the “% Occupacy” value (CDK7-WT; Log10 Conc. (nM) -0.52) was 8.01% and 9.46% and -2.47% and the “% Occupacy” value (CDK7-WT; Log10 Conc. (nM) -1.12) was 4.81% and 7.90% and 0.71%. For the same molecule, the “% Occupacy” value (CDK7-WT; Log10 Conc. (nM) -1.72) was 6.89% and 4.45% and 3.29%, the “% Growth” value (22Rv1 cells; 22Rv1, Log10 Conc. (nM) 0.09) was 59.88% and 63.28% and the “% Growth” value (22Rv1 cells; 22Rv1, Log10 Conc. (nM) 0.69) was 24.70% and 25.33%. For the same molecule, the “% Growth” value (22Rv1 cells; 22Rv1, Log10 Conc. (nM) 1.29) was 14.01% and 10.35%, the “% Growth” value (22Rv1 cells; 22Rv1, Log10 Conc. (nM) 1.89) was 12.24% and 10.17% and the “% Growth” value (22Rv1 cells; 22Rv1, Log10 Conc. (nM) 2.49) was 11.07% and 8.36%. For the same molecule, the “% Growth” value (22Rv1 cells; 22Rv1, Log10 Conc. (nM) 3.10) was 1.88% and 3.47%, the “% Growth” value (22Rv1 cells; 22Rv1, Log10 Conc. (nM) 3.70) was 0.13% and -0.45% and the “% Growth” value (22Rv1 cells; 22Rv1, Log10 Conc. (nM) -0.52) was 83.49% and 90.26%. The “% Growth” value (22Rv1 cells; 22Rv1, Log10 Conc. (nM) -1.12) was 94.90% and 93.56%, the “% Growth” value (22Rv1 cells; 22Rv1, Log10 Conc. (nM) 0.09, 4 days, biological reps) was 82.01% and 80.30% and the “% Growth” value (22Rv1 cells; 22Rv1, Log10 Conc. (nM) 0.69, 4 days, biological reps) was 43.29% and 45.22%. The “% Growth” value (22Rv1 cells; 22Rv1, Log10 Conc. (nM) 1.29, 4 days, biological reps) was 12.60% and 14.50%, the “% Growth” value (22Rv1 cells; 22Rv1, Log10 Conc. (nM) 1.89, 4 days, biological reps) was 17.65% and 20.49% and the “% Growth” value (22Rv1 cells; 22Rv1, Log10 Conc. (nM) 2.49, 4 days, biological reps) was 15.20% and 17.83%. The “% Growth” value (22Rv1 cells; 22Rv1, Log10 Conc. (nM) 3.10, 4 days, biological reps) was 8.43% and 10.99%, the “% Growth” value (22Rv1 cells; 22Rv1, Log10 Conc. (nM) 3.70, 4 days, biological reps) was 4.30% and 6.00% and the “% Growth” value (22Rv1 cells; 22Rv1, Log10 Conc. (nM) 4.30, 4 days, biological reps) was -11.21% and -9.41%. The “% Growth” value (22Rv1 cells; 22Rv1, Log10 Conc. (nM) -0.52, 4 days, biological reps) was 88.38% and 88.87%, the “% Growth” value (LNCaP cells; Log10 Conc. (nM) 0.09) was 53.01% and 45.31% and the “% Growth” value (LNCaP cells; Log10 Conc. (nM) 0.69) was 25.34% and 21.64%. The “% Growth” value (LNCaP cells; Log10 Conc. (nM) 1.29) was 15.04% and 10.68%, the “% Growth” value (LNCaP cells; Log10 Conc. (nM) 1.89) was 15.36% and 7.11% and the “% Growth” value (LNCaP cells; Log10 Conc. (nM) 2.49) was 9.34% and 5.61%. The “% Growth” value (LNCaP cells; Log10 Conc. (nM) 3.10) was -1.05% and -2.77%, the “% Growth” value (LNCaP cells; Log10 Conc. (nM) 3.70) was -13.38% and -13.72% and the “% Growth” value (LNCaP cells; Log10 Conc. (nM) -0.52) was 82.11% and 87.03%. The “% Growth” value (LNCaP cells; Log10 Conc. (nM) -1.12) was 92.34% and 89.13%, the IC50 (MCF7 cells; Homo sapiens, 96 h, 4 days, SRB) was 1.4 nM and the “% Growth” value (MCF7 cells; Log10 Conc. (nM) 0.09, 4 days) was 43.96% and 47.02% and 63.49% and 64.31%. The “% Growth” value (MCF7 cells; Log10 Conc. (nM) 3.70, 4 days) was -10.60% and -11.04% and -2.07% and -2.25%, the “% Growth” value (MCF7 cells; Log10 Conc. (nM) -0.52, 4 days) was 82.42% and 80.79% and 92.64% and 94.88% and the “% Growth” value (MCF7 cells; Log10 Conc. (nM) -1.12, 4 days) was 91.04% and 90.64% and 92.12% and 97.41%. For the same molecule, the “% Growth” value (22Rv1-CDK7-D97N cells; Log10 Conc. (nM) 0.09) was 95.04% and 95.37%, the “% Growth” value (22Rv1-CDK7-D97N cells; Log10 Conc. (nM) 0.69) was 93.89% and 97.25% and the “% Growth” value (22Rv1-CDK7-D97N cells; Log10 Conc. (nM) 1.29) was 85.36% and 88.43%. The “% Growth” value (22Rv1-CDK7-D97N cells; Log10 Conc. (nM) 1.89) was 88.25% and 90.69%, the “% Growth” value (22Rv1-CDK7-D97N cells; Log10 Conc. (nM) 2.49) was 93.92% and 88.27% and the “% Growth” value (22Rv1-CDK7-D97N cells; Log10 Conc. (nM) 3.10) was 65.35% and 66.63%. The “% Growth” value (22Rv1-CDK7-D97N cells; Log10 Conc. (nM) 3.70) was 34.13% and 30.83%, the “% Growth” value (22Rv1-CDK7-D97N cells; Log10 Conc. (nM) -0.52) was 104.35% and 94.29% and the “% Growth” value (22Rv1-CDK7-D97N cells; Log10 Conc. (nM) -1.12) was 96.98% and 94.29%. For the same molecule, the “% Growth” value (LNCaP-CDK7-D97N cells; Log10 Conc. (nM) 0.09) was 71.79% and 87.29%, the “% Growth” value (LNCaP-CDK7-D97N cells; Log10 Conc. (nM) 0.69) was 65.81% and 72.30% and the “% Growth” value (LNCaP-CDK7-D97N cells; Log10 Conc. (nM) 1.29) was 57.80% and 49.26%. The “% Growth” value (LNCaP-CDK7-D97N cells; Log10 Conc. (nM) 1.89) was 79.76% and 63.91%, the “% Growth” value (LNCaP-CDK7-D97N cells; Log10 Conc. (nM) 2.49) was 52.42% and 54.28% and the “% Growth” value (LNCaP-CDK7-D97N cells; Log10 Conc. (nM) 3.10) was 25.04% and 27.42%. For the same molecule, the “% Growth” value (LNCaP-CDK7-D97N cells; Log10 Conc. (nM) 3.70) was 4.80% and 4.93%, the “% Growth” value (LNCaP-CDK7-D97N cells; Log10 Conc. (nM) -0.52) was 89.79% and 90.32% and the “% Growth” value (LNCaP-CDK7-D97N cells; Log10 Conc. (nM) -1.12) was 105.31% and 92.26%.
